Measured values taken from US20220364184A1, “COMPOSITIONS AND METHODS FOR TREATMENT OF A POOR PROGNOSIS SUBTYPE OF COLORECTAL CANCER” (DANA-FARBER CANCER INSTITUTE, INC., priority 2019, published 2022).
“Also recorded” adds a separate entry of the source. Each block holds one molecule with its values, some of them ahead of it.

What was measured:
RKO cells [1] = experiment: Wound healing (scratch) assay with calcium wave imaging; format: cell-based, human; settings: for display of primary and secondary calcium waves after scratching: FIG. 19E-F, verapamil 500 nM
Experimental: Wild-type or BCL9 knockout cells were grown in 6-well plates or Nunc™ Glass Bottom Dishes (150680, ThermoFisher®) for 24 hrs until cells reached 90% confluency. A 1 ml pipette tip was used to scratch the monolayer of cells across the center of each well. The cells were imaged at 0 and 24 hours after scratching. To investigate the effect of BCL9 on calcium waves (FIG. 5H), cells were cultured in glass-bottomed 96-well plates for 24 hrs until they reached 90% confluency. […] A 200 μl pipette tip was used to scratch the cell monolayer from the top left to the bottom right corner of the well. At various times after the scratch was made, cells were fixed with 4% paraformaldehyde for 15 minutes at room temperature. Immunofluorescence was subsequently used to identify the location of BCL9 (see immunofluorescence method section for more detail). The wound edge in the center of the well was defined as “adjacent” and the area in the top right corner was defined as “distance” (FIG. 4H).
To trace the calcium transient in real time, GCaMP5G (#31788, Addgene®) was transfected into wild-type or BCL9 knockout RKO and Colo320 cell lines. 2 mg/ml neomycin was added to the cell culture medium 48 hrs after transfection to generate cell lines with stable GCaMP5 expression and removed one week prior to the initiation of experiment. Calcium transients were captured by live-cell imaging using a confocal microscope. […] Calcium measurements were normalized to background fluorescence and the relative change in calcium (F(t)) over time was calculated by the formula: […]
where F0 was defined as the average intensity of the 20% lowest grey values in a region of interest (ROI), F was defined as the normalized grey values of ROI in time point t. Global synchronicity was calculated by cross correlation method in FluoroSNNAP (seas.upenn.edu/˜molneuro/fluorosnnap.html). The frequency spectrum was calculated by fast Fourier transform (Uhlen, P. (2004). Sci. STKE 2004, p 115), the time difference between each sample is 0.5 s.

RKO cells [2] = experiment: Live-cell calcium imaging of spontaneous calcium transients (GCaMP5); format: cell-based, human; settings: for spontaneous calcium transients: FIG. 4C; for propagation of calcium transients: FIG. 5E
Experimental: 2 mg/ml neomycin was added to the cell culture medium 48 hrs after transfection to generate cell lines with stable GCaMP5 expression and removed one week prior to the initiation of experiment. Calcium transients were captured by live-cell imaging using a confocal microscope. Time lapse imaging was setup so that an image was captured every 0.5 s for 30 minutes, with an exposure time of 0.5 s. Calcium measurements were normalized to background fluorescence and the relative change in calcium (F(t)) over time was calculated by the formula: […]
where F0 was defined as the average intensity of the 20% lowest grey values in a region of interest (ROI), F was defined as the normalized grey values of ROI in time point t. Global synchronicity was calculated by cross correlation method in FluoroSNNAP (seas.upenn.edu/˜molneuro/fluorosnnap.html).

[3] = system: RGS4, CACNA2D1, ADRB1 mRNA; experiment: mRNA expression by RNA-seq / qRT-PCR; format: cell-based, human; settings: both wild-type and BCL9 knockout RKO cells, qRT-PCR, FIG. 17A
Experimental: RNA was extracted from wild type and BCL9 knockout RKO cells with or without Poly I:C treatment (1 μg/ml) and subsequently purified using the TURBO DNA-free™ Kit (AM1907, invitrogen) to remove any residual DNA. An RNA library was prepared using the ribosome RNA removing method and sequenced with a 150 bp paired-end protocol in the Center for Cancer Computational Biology at the Dana Farber Cancer Institute (PRJNA554110). After quality control (QC) analysis was performed using fastQC, the first 10 bases were trimmed for each read. STAR software was used to map the readings to the human genome (hg19) and duplicates were removed using Picard. HTSeq was used to evaluate the gene expression levels by the count number for each gene and were subsequently annotated using the Ensemble database. Gene differential analysis was then applied to the expression profiling table using R package edgeR. For further analysis, the difference in exon usage between different conditions was calculated and R package DEXSeq was used to find differences between them.

RKO cells [4] = experiment: In vivo mouse xenograft model (RKO-luciferase, intraperitoneal)
Experimental: A total of 4×10^6 wild-type or BCL9 knockout RKO cells stably transduced with a reporter expressing Luciferase were injected intraperitoneally into CB17.Cg-PrkdcscidLystbg-J/Crl (Beige) mice (n=7 per group), and tumor burden was monitored by whole-body imaging using Xenogen system every week for 4 weeks, starting one day after injection of cells. After last imaging, all mice were euthanized and all tumor nodules identified in the peritoneal cavity were dissected and processed for histological and immunohistochemical analysis. To quantify β-catenin and Ki-67 stains serial consecutive sections were scanned using Vectra 2 Intelligent Slide Analysis system; percentage of positive cells (Ki-67, CD163, CD31, or αSMA) or areas (β-catenin) were assessed using inform Cell Analysis software (PerkinElmer®). P-values were calculated using unpaired Student's t-test. Propranolol hydrochloride (Millapore-Sigma®) was added to the drinking water at a concentration of 0.5 g/L on the injection day. Drug solution was renewed every 2 days.
TMA sections (from Oncology Pathology, Dana Farber Cancer Institute) were pre-heated at 65 degrees for 20 mins and then deparaffined by performing the following washing steps: xylene 3×5 mins, 100% ethanol 5 mins, 95% ethanol 5 mins, 75% ethanol 5 mins, 50% ethanol 5 mins, 25% ethanol 5 mins, and rinsed by cold water. Sections were subsequently heated in a microwave with antigen retrieval buffer (10 mM Tris Base, 1 mM EDTA Solution, 0.05% Tween 20, pH 9.0). Sections were washed twice with TBS plus 0.5% Triton X-100 (v/v) and blocked with 5% BSA for 1 hr at room temperature. Sections were incubated overnight with the following antibodies at 4 degrees: BCL9 (ab37305, Abcam®), FAP (AF3715, R&D), β-catenin (610154, BD Transduction Laboratories), SYP (PA0299, Lecia), PDGFB (ab23914, Abcam®), C3 (HPA003563, Millapore-Sigma®), RGS4 (sc-398348, Santa Cruz®), CD163 (182422, Abcam®), CD31 (77699, Cell Signaling®), αSMA (19245, Cell Signaling®), or Axin2 (#2151, Cell Signaling®). The sections were washed three times before incubation with secondary antibody for 2 hours at room temperature. The sections were then washed three times before signal amplification with HRP polymer or fluorescence. ImageJ2 software was used to carry out semi-quantitative analysis of the staining intensities, which ranged from 0 (negative) to 3 (strong staining). Subsequently the H-score was calculated using the following formula;

[5] = system: RKO, Colo320, SW620, LS174T, DLD-1 cells; experiment: Cell viability assay of CRC cell lines; settings: Colo320, and SW620 more than LS174T or DLD-1 cells, increased concentrations, FIG. 20C
B-cell lymphoma 9 (BCL9) = target: T1, B-cell lymphoma 9 (BCL9) (human, UniProt O00512 1-1426); experiment: co-IP with anti-β-catenin antibody, untreated and poly I:C treated Colo320 cells
T1 construct: Endogenous protein in nuclear lysates of human CRC cell lines (RKO, Colo320, SW620, LS174T, DLD-1)
T1 sequence: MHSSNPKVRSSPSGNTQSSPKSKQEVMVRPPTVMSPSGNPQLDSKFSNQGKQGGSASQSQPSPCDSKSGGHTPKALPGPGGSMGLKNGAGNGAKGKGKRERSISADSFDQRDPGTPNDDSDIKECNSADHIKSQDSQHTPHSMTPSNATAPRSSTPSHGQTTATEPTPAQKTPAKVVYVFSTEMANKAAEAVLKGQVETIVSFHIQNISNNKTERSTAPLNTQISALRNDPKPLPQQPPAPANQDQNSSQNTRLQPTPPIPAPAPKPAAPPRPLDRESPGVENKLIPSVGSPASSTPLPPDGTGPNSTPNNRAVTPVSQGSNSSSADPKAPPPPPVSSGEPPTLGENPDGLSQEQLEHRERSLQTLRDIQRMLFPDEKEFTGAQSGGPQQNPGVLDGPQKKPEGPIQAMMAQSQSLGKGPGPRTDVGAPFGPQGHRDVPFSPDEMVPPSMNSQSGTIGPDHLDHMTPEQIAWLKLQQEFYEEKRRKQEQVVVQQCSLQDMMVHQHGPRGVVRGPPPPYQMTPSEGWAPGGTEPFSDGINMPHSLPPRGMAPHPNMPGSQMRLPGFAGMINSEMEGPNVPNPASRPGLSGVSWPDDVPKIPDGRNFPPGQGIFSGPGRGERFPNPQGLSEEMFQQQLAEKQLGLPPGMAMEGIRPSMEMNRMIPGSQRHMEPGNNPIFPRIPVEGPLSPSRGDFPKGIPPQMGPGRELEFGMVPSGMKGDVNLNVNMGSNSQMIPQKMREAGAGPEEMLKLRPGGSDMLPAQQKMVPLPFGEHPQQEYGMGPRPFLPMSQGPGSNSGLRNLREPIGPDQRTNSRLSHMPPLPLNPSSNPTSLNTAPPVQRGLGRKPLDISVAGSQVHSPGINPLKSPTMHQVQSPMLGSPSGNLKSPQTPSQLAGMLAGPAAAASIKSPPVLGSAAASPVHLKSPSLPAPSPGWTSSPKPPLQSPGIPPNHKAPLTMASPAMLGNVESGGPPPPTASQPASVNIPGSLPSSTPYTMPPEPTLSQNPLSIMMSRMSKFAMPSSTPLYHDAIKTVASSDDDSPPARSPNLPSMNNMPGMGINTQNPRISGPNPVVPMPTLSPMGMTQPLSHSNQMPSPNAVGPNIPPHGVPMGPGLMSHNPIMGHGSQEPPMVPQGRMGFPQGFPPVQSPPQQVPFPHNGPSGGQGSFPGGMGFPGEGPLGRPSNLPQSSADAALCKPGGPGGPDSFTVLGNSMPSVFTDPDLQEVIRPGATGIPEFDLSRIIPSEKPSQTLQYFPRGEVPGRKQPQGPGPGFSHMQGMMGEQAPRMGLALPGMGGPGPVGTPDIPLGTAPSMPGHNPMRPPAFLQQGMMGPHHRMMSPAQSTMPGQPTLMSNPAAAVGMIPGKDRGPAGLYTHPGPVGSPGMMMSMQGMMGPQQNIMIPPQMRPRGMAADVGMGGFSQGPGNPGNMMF

Molecule: O=C(O)CN(CCN(CC(=O)O)CC(=O)O)CC(=O)O [EDTA, ethylene diamine tetra-acetic acid]
display of primary and secondary calcium waves after scratching (RKO cells [1]): disappeared; also recorded: blocked
spontaneous calcium transients (RKO cells [2]; RKO cells): disappeared

Molecule: CC(C)(C)NCC(O)c1cc(O)cc(O)c1 (stereo not drawn) [Terbutaline]
propagation of calcium transients (RKO cells [2]; BCL9 knockout RKO cells): not
propagation of calcium transients (RKO cells [2]; wild-type RKO cells): induced

Molecule: NCCc1ccc(O)c(O)c1 [dopamine]
expression of RGS4 and CACNA2D1 mRNAs [3]: increased

Molecule: CC(C)NCC(O)COc1cccc2ccccc12 (stereo not drawn) [propranolol, 2-propanol, 1-[(1-methylethyl)amino]-3-(1-naphthalenyloxy)]
number of endothelial cells within tumor microenvironment (CD31) (RKO cells [4]; RKO xenograft, FIG. 6H-I): marked reduction
number of mouse derived M2 macrophages within tumor microenvironment (CD163) (RKO cells [4]; RKO xenograft, FIG. 6H-I): marked reduction
number of myofibroblast cells within tumor microenvironment (αSMA) (RKO cells [4]; RKO xenograft, FIG. 6H-I): not
expression of Axin2 in xenograft tumors (RKO cells [4]; control vs treated groups): did not display differences
mice that had died with extensive tumor burden (RKO cells [4]; three weeks after RKO cell injection, 0.5 g/L in drinking water, n=7): none
tumor burden (whole-body imaging) (RKO cells [4]; three weeks post tumor injection, 0.5 g/L in drinking water): disappeared in most
calcium transient activation after scratching (RKO cells [1]; FIG. 5F): inhibited calcium transients only in a subset of cells; also recorded: very few of them were activated
amplitude, frequency, and synchronicity of spontaneous calcium waves (RKO cells [2]; RKO cells, FIG. 20B): reduced
viability of CRC cell lines [5]: significantly reduced

Molecule: COc1ccc(CCN(C)CCCC(C#N)(c2ccc(OC)c(OC)c2)C(C)C)cc1OC (stereo not drawn) [verapamil, Benzeneacetonitrile, α-[3-[[2-(3,4-dimethoxyphenyl)ethyl]methylamino]propyl]-3,4-dimethoxy-α-(1-methylethyl)]
display of primary and secondary calcium waves after scratching (RKO cells [1]): disappeared; also recorded: blocked
spontaneous calcium transients (RKO cells [2]; RKO cells): disappeared
viability of CRC cell lines [5]: significantly reduced

binding result (B-cell lymphoma 9 (BCL9)): binds
B1: β-catenin (other, UniProt P35222 2-781, looked up)
chain: ATQADLMELDMAMEPDRKAAVSHWQQQSYLDSGIHSGATTTAPSLSGKGNPEEEDVDTSQVLYEWEQGFSQSFTQEQVADIDGQYAMTRAQRVRAAMFPETLDEGMQIPSTQFDAAHPTNVQRLAEPSQMLKHAVVNLINYQDDAELATRAIPELTKLLNDEDQVVVNKAAVMVHQLSKKEASRHAIMRSPQMVSAIVRTMQNTNDVETARCTAGTLHNLSHHREGLLAIFKSGGIPALVKMLGSPVDSVLFYAITTLHNLLLHQEGAKMAVRLAGGLQKMVALLNKTNVKFLAITTDCLQILAYGNQESKLIILASGGPQALVNIMRTYTYEKLLWTTSRVLKVLSVCSSNKPAIVEAGGMQALGLHLTDPSQRLVQNCLWTLRNLSDAATKQEGMEGLLGTLVQLLGSDDINVVTCAAGILSNLTCNNYKNKMMVCQVGGIEALVRTVLRAGDREDITEPAICALRHLTSRHQEAEMAQNAVRLHYGLPVVVKLLHPPSHWPLIKATVGLIRNLALCPANHAPLREQGAIPRLVQLLVRAHQDTQRRTSMGGTQQQFVEGVRMEEIVEGCTGALHILARDVHNRIVIRGLNTIPLFVQLLYSPIENIQRVAAGVLCELAQDKEAAEAIEAEGATAPLTELLHSRNEGVATYAAAVLFRMSEDKPQDYKKRLSVELTSSLFRTEPMAWNETADLGLDIGAQGEPLGYRQDDPSYRSFHSGGYGQDALGMDPMMEHEMGGHHPGADYPVDGLPDLGHAQDLMDGLPPGDSNQLAWFDTDL
notes: Endogenous protein in cell lysates; co-IP with anti-β-catenin (9562L, Cell Signaling) or anti-BCL9 antibody; also called B-catenin
